In PMC9266914, “Broad Spectrum Functional Activity of Structurally Related Monoanionic Au(III) Bis(Dithiolene) Complexes” (International Journal of Molecular Sciences, 2022):
Where two headings read alike, the source gives them in different places. Marks after values point to notes of the source that are not given here.

Legend:
Cyclic voltammetry = type: physicochemical; conditions: CH2Cl2, NBu4PF6, Pt, 100 mV.s^−1
Source text: The redox properties of the various gold(III) bis(dithiolene) and bis(diselenolene) complexes were investigated by cyclic voltammetry using the same conditions, dichloromethane solutions and NBu4PF6 as supporting electrolyte. Under these conditions, the nature of the counter-ion, Ph4P^+ or Et4N^+, had no influence on the redox properties observed, due to ion exchange with the Bu4N^+ of the supporting electrolyte. Thus, only the result of one monoanion is included in Table 1, even if the two salts were analyzed. For all the investigated monoanionic bis(dithiolene) complexes, three redox processes are observed on the cyclic voltammograms. On the anodic scan, the two oxidation waves correspond to the oxidation of the monoanionic species into the neutral and to the monocationic complex. Most of these complexes had the tendency to deposit on the electrode once oxidized and frequently a strong desorption peak was observed on the reversible scan. This phenomenon occurs essentially for the complex with an exocyclic sulfur atom, [AuSR(=S)]^−1. On the cathodic scan, an irreversible process associated with the reduction in the monoanion into the dianion occurs (Scheme 2). […] The presence of oxygen instead of sulfur makes the oxidation of the monoanionic into the neutral species easier. On the other hand, the presence of electron-withdrawing substituents such as =C(CN)2 induces an anodic shift of the oxidation potentials by 300 mV, compared with the =O derivative, leading to a monoanion which is more difficult to oxidize than the other complexes of the series. […] Indeed, the potential difference between the second and the first oxidation potentials amounts to 470 mV and 410 mV for the =O and the =C(CN)2 derivatives, respectively, while for the =S analogues this value is smaller (170 mV). […] For comparison, we also investigated the redox behavior of Auranofin using the same experimental conditions in CH2Cl2 in the presence of NBu4PF6 as a supporting electrolyte. Using these conditions, upon anodic scan only one irreversible oxidation process is observed at 1.42 V vs. SCE. Therefore, all these monoanionic gold bis(dithiolene) and bis(diselenolene) complexes are easier to oxidize than Auranofin.
All reagents and materials from commercial sources were used without further purification. NMR spectra were recorded at room temperature using CDCl3 unless otherwise stated (Figures S7–S15). Chemical shifts are reported in ppm and ^1H NMR spectra were referenced to residual CHCl3 (7.26 ppm) and ^13C NMR spectra were referenced to CHCl3 (77.2 ppm). Mass spectra were recorded with an Agilent 6510 instrument for organics compounds and with a Thermo-Fisher Q-Exactive instrument for complexes by the Center Régional de Mesures Physiques de l’Ouest, Rennes. Cyclic voltammograms (CV)s were carried out on a 10^−3 M solution of complex in CH2Cl2-[NBu4] [PF6] 0.1 M. CVs were recorded on a Biologic SP-50 instruments at 0.1 Vs^−1 on a platinum disk electrode. Potentials were measured versus KCl Saturated Calomel Electrode (SCE). Column chromatography was performed using silica gel Merck 60 (70–260 mesh). The solvents were purified and dried by standard methods. The proligand 2-SEt(=C(CN2)), [72] and complexes [N][AuSMe(=S)], [73] [N][AuSEt(=S)], [74] [P][AuSEt(=O)], [75] [N][AuSeEt(=S)] [75] and [P][AuSPr(=S)] [76] were synthesized according to the previously reported procedure.

C. albicans SC5134 = test: MIC determination, C. albicans; type: cell-based, Candida albicans; conditions: RPMIG, 24 h, 35 °C
Source text: (§1) The bacterial strains Escherichia coli ATCC25922 and Staphylococcus aureus Newman were used in this work and maintained in Lennox Broth (LB) solid medium, composed of 10 g/L tryptone, 5 g/L yeast extract, 5 g/L NaCl and 20 g/L agar. The fungal strains Candida albicans SC5134 and C. glabrata CBS138 were used in this work and maintained in YPD solid medium, composed of 20 g/L glucose, 20 g/L peptone, 10 g/L yeast extract and 15 g/L agar. The strains were isolated from human infections.
(§2) The antimicrobial activity of the complexes towards the bacterial and fungal strains was assessed by the determination of the Minimal Inhibitory Concentration (MIC) of each complex towards the indicated microbial strains, based on standard methods, and as previously described. […] Serial 1:2 dilutions of stock solutions were prepared for each complex in Mueller–Hinton (MH) broth (Fluka Analytical) or RPMI-1640 medium (Sigma) supplemented with 20 g/L glucose and buffered with 0.165 M morpholinepropanesulphonic acid (RPMIG) to pH 7.0. Solutions prepared with MH were used for testing bacteria, while those prepared with RPMIG were used for testing fungi. For antibacterial activity assays, the final concentrations ranged from 250 to 0.24 μg/mL (when stock solution final concentration was 10 mg/mL), 125 μg/mL to 0.12 μg/mL (when stock solution final concentration was 5 mg/mL) and 62.5 to 0.06 μg/mL (when stock solution final concentration was 2.5 mg/mL). For antifungal assays, the final concentrations ranged from 125 μg/mL to 0.12 μg/mL (when stock solution final concentration was 10 mg/mL), 62.5 to 0.06 μg/mL (when stock solution final concentration was 5 mg/mL) and 31.25 to 0.03 μg/mL (when stock solution final concentration was 2.5 mg/mL). Then, 100 μL aliquots of adequately diluted bacterial suspensions of S. aureus Newman or E. coli ATCC 25922 were mixed with the MH serially diluted complexes aliquots to obtain 5 × 10^5 CFU/mL. In the case of fungi, cultures were diluted to obtain a final optical density of 0.025, measured at 530 nm (OD530). Bacterial suspensions were prepared from cultures grown for 5 h in MH broth at 37 °C and 250 rev·min^−1 and adequately diluted with fresh MH medium, while fungal suspensions were prepared from overnight cultures grown in YPD broth at 30 °C and 250 rev.min^−1 and diluted in buffered RPMIG. After 22 h of incubation at 37 °C (bacteria) or 24 h at 35 °C (fungi), the wells’ content was resuspended by pipetting and the OD640 (bacteria) or OD530 (fungi) were measured in a SPECTROstar Nano microplate reader (BMG Labtech).
(§3) At least three independent experiments were performed in duplicate for each complex under study. […] Positive (no complex) and negative controls (no inoculum) were performed for each experiment. The effect of 5% (V/V) DMSO on microbial growth was also assessed.

[1] = tested on: OVCAR8 ovarian cancer cells; test: MTT cytotoxicity assay in OVCAR8 (cisplatin resistant) ovarian cancer cells; type: cell-based, human; conditions: 48 h incubation
Experimental: (§4) Cells were exposed to increasing concentrations of the complexes (0.01–100 μM) for 24 and/or 48 h, at 37 °C. The IC50 values were calculated from dose–response curves using the colorimetric MTT assay. […] Most complexes presented a similar cytotoxicity profile compared to Auranofin, but higher activity compared to Cisplatin, and, most importantly, were active in the Cisplatin-resistant OVCAR8 cells (Table 2).
(§5) The cytotoxic activity of the complexes was evaluated in the A2780 (cisplatin sensitive) (Sigma-Aldrich) and OVCAR8 (cisplatin resistant) (ATCC) ovarian cancer cells. Cells were grown in RPMI-1640 medium (Gibco, Thermo Fisher) supplemented with 10% fetal bovine serum (FBS) and were maintained at 37 °C in a humidified atmosphere with 5% CO2. The complexes were initially dissolved in DMSO and then in culture medium to prepare serial dilutions in the range 10^−9–10^−4 M. After 24 and/or 48 h incubation the cellular viability was measured by the colorimetric MTT assay, as previously described.

C. glabrata CBS138 = test: MIC determination, C. glabrata; type: cell-based, Candida glabrata; conditions: RPMIG, 24 h, 35 °C
Source text: as §1, §2, §3

E. coli ATCC25922 = test: MIC determination, E. coli; type: cell-based, Escherichia coli; conditions: MH broth, 22 h, 37 °C
Source text: as §1, §2, §3

S. aureus Newman = test: MIC determination, S. aureus; type: cell-based, Staphylococcus aureus; conditions: MH broth, 22 h, 37 °C
Source text: as §1, §2, §3

[2] = tested on: A2780 ovarian cancer cells; test: MTT cytotoxicity assay in A2780 (cisplatin sensitive) ovarian cancer cells; type: cell-based, human
Experimental: as §4, §5

[3] = 24 h incubation, read-out: IC50 A2780, 24 h
[4] = 48 h incubation, read-out: IC50 A2780, 48 h

Structure (SMILES): CCCn1c2c(sc1=[Se])[S][Au-]1([S]c3sc(=[Se])n(CCC)c3[S]1)[S]2 [[AuSPr(=Se)]^−1]
- E1/2 −1/0, first value of cell (anodic peak) (Cyclic voltammetry): 0.45/− ** V vs. SCE
- E −2/−1 (reduction of monoanion into dianion) (Cyclic voltammetry): −0.84 ** V vs. SCE

Structure (SMILES): CCn1c2c(sc1=S)[Se][Au-]1([Se]c3sc(=S)n(CC)c3[Se]1)[Se]2 [[AuSeEt(=S)]^−1]
- E1/2 −1/0, first value of cell (anodic peak) (Cyclic voltammetry): 0.52/− ** V vs. SCE
- E −2/−1 (reduction of monoanion into dianion) (Cyclic voltammetry): −0.89 ** V vs. SCE

Structure (SMILES): CCn1c2c(sc1=[Se])[Se][Au-]1([Se]c3sc(=[Se])n(CC)c3[Se]1)[Se]2 [[AuSeEt(=Se)]^−1]
- E1/2 −1/0, first value of cell (anodic peak) (Cyclic voltammetry): 0.43/− ** V vs. SCE
- E −2/−1 (reduction of monoanion into dianion) (Cyclic voltammetry): −0.84 ** V vs. SCE

Structure (SMILES): CCCn1c2c(sc1=S)[Se][Au-]1([Se]c3sc(=S)n(CCC)c3[Se]1)[Se]2 [[AuSePr(=S)]^−1]
- E1/2 −1/0, first value of cell (anodic peak) (Cyclic voltammetry): 0.54/− ** V vs. SCE
- E −2/−1 (reduction of monoanion into dianion) (Cyclic voltammetry): −0.90 V vs. SCE
- Epa2 0/+1 (Cyclic voltammetry): 0.95/− V vs. SCE

Structure (SMILES): CC(C)n1c2c(sc1=S)[Se][Au-]1([Se]c3sc(=S)n(C(C)C)c3[Se]1)[Se]2 [[AuSeiPr(=S)]^−1]
- E1/2 −1/0, first value of cell (anodic peak) (Cyclic voltammetry): 0.62 V vs. SCE
- E1/2 −1/0, second value of cell (cathodic peak) (Cyclic voltammetry): 0.57 V vs. SCE
- E −2/−1 (reduction of monoanion into dianion) (Cyclic voltammetry): −0.94 V vs. SCE
- Epa2 0/+1 (Cyclic voltammetry): 0.75/− V vs. SCE

Structure (SMILES): CCCn1c2c(sc1=S)[S][Au-]1([S]c3sc(=S)n(CCC)c3[S]1)[S]2.CC[N+](CC)(CC)CC [[N][AuSPr(=S)]]
- MIC C. albicans SC5134 (C. albicans SC5134): 3.1 µg/mL
- MIC C. albicans SC5134 (C. albicans SC5134; listed as [ N ][AuSPr(=S)]): 3.1 ± 0.5 µg/mL
- IC50 [1]: 2.28 ± 0.19 µM
- MIC C. glabrata CBS138 (C. glabrata CBS138): 1.6 ± 0.8 µg/mL
- MIC E. coli ATCC25922 (E. coli ATCC25922): >250 µg/mL
- MIC S. aureus Newman (S. aureus Newman): 1.1 ± 0.2 µg/mL
- IC50 [2, 3]: 2.93 ± 0.81 µM
- IC50 [2, 4]: 2.28 ± 0.69 µM

Structure (SMILES): CC[N+](CC)(CC)CC.CCn1c2c(sc1=S)[Se][Au-]1([Se]c3sc(=S)n(CC)c3[Se]1)[Se]2 [[N][AuSeEt(=S)]]
- MIC C. albicans SC5134 (C. albicans SC5134): >62.5 µg/mL
- IC50 [1]: 29.4 ± 4.2 µM
- MIC C. glabrata CBS138 (C. glabrata CBS138): 1.6 ± 0.8 µg/mL
- MIC E. coli ATCC25922 (E. coli ATCC25922): >125 µg/mL
- MIC S. aureus Newman (S. aureus Newman): 5.5 ± 0.3 µg/mL
- IC50 [2, 3]: 19.2 ± 2.01 µM
- IC50 [2, 4]: 4.32 ± 1.17 µM

Structure (SMILES): CC[N+](CC)(CC)CC.CCn1c2c(sc1=[Se])[Se][Au-]1([Se]c3sc(=[Se])n(CC)c3[Se]1)[Se]2 [[N][AuSeEt(=Se)]]
- MIC C. albicans SC5134 (C. albicans SC5134): >31.25 µg/mL
- IC50 [1]: 13.9 ± 1.61 µM
- MIC C. glabrata CBS138 (C. glabrata CBS138): 1.8 ± 0.5 µg/mL
- MIC E. coli ATCC25922 (E. coli ATCC25922): >62.5 µg/mL
- MIC S. aureus Newman (S. aureus Newman): >62.5 µg/mL
- IC50 [2, 3]: 26.9 ± 3.02 µM
- IC50 [2, 4]: 4.84 ± 1.6 µM
